Experimental data taken from DBAASP.
In brackets after ≈: the same amount, converted by molar mass.

Assays:
Test in all cases: ≥ marks a high value that may be exact or a test limit, other limits are often not marked, values filed in µg/mL are converted to µM
Enterococcus faecalis = system: Enterococcus faecalis
Escherichia coli W3110 = system: Escherichia coli W3110
[1] = system: Pseudomonas aeruginosa PAK
Staphylococcus aureus = system: Staphylococcus aureus
[2] = system: Streptococcus mutans UA159
[3] = system: Streptococcus sanguinis NY101
[4] = system: Acinetobacter baumannii MTCC 9829
[5] = system: Alcaligenes faecalis MTCC 1937
[6] = system: Alkalihalobacillus alcalophilus MTCC 860
[7] = system: Bordetella bronchiseptica MTCC 6837
[8] = system: Citrobacter freundii MTCC 1658
[9] = system: Citrobacter koseri MTCC 1657
[10] = system: Corynebacterium glutamicum MTCC 2679
[11] = system: Enterococcus faecalis MTCC 439
[12] = system: Escherichia coli K12 MG1655
[13] = system: Haemophilus influenzae MTCC 621
[14] = system: Klebsiella aerogenes MTCC 111
[15] = system: Klebsiella oxytoca MTCC 2275
[16] = system: Klebsiella pneumoniae MTCC 7407
[17] = system: Pluralibacter gergoviae MTCC 3826
[18] = system: Proteus mirabilis MTCC 3158
[19] = system: Proteus vulgaris MTCC 1771
[20] = system: Pseudomonas aeruginosa MTCC 3542
[21] = system: Salmonella enterica MTCC 9844
[22] = system: Salmonella enterica subsp. enterica serovar Typhimurium ATCC 14028
[23] = system: Shigella boydii MTCC 11947
[24] = system: Shigella flexneri MTCC 1457
[25] = system: Staphylococcus aureus MTCC 3160
[26] = system: Staphylococcus haemolyticus MTCC 3383
[27] = system: Stenotrophomonas maltophilia MTCC 1890
[28] = system: Vibrio cholerae MTCC 3904
[29] = system: Klebsiella pneumoniae ATCC BAA-1705
Salmonella sp. = system: Salmonella sp.

| MIC (Escherichia coli W3110) | SMILES | MIC [4] | MIC [5] | MIC [6] | MIC [7] | MIC [8] | MIC [9] | MIC [10] | MIC [11] | MIC [12] | MIC [13] | MIC [14] | MIC [15] | MIC [16] | MIC [17] | MIC [18] | MIC [19] | MIC [20] | MIC [21] | MIC [22] | also measured |
| --- | --- | --- | --- | --- | --- | --- | --- | --- | --- | --- | --- | --- | --- | --- | --- | --- | --- | --- | --- | --- | --- |
| 8.13 µM (≈ 7.99 µg/mL) | CC(C)C[C@H](NC(=O)[C@H](Cc1cnc[nH]1)NC(=O)[C@H](Cc1ccccc1)NC(=O)[C@H](Cc1cnc[nH]1)NC(=O)[C@@H](N)Cc1ccccc1)C(=O)N[C@@H](Cc1cnc[nH]1)C(=O)N[C@@H](Cc1ccccc1)C(N)=O [FHFHLHF] |  |  |  |  |  |  |  |  |  |  |  |  |  |  |  |  |  |  |  | MIC (Enterococcus faecalis): 16.3 µM (≈ 16 µg/mL); MIC [1]: 16.3 µM (≈ 16 µg/mL); MIC (Staphylococcus aureus): 32.5 µM (≈ 32 µg/mL); MIC [2]: 8.13 µM (≈ 7.99 µg/mL); MIC [3]: 16.3 µM (≈ 16 µg/mL) |
|  | CC[C@H](C)[C@H](NC(=O)[C@H](CCCCN)NC(=O)[C@H](CCCCN)NC(=O)[C@H](C)NC(=O)[C@H](CCCCN)NC(=O)[C@H](CO)NC(=O)[C@H](CCCN=C(N)N)NC(=O)[C@H](Cc1c[nH]c2ccccc12)NC(=O)[C@H](CCCCN)NC(=O)[C@H](CCCCN)NC(=O)[C@H](Cc1c[nH]c2ccccc12)NC(=O)[C@H](CCCN=C(N)N)NC(=O)[C@H](CCCCN)NC(=O)[C@@H](N)Cc1ccc(O)cc1)C(=O)N[C@@H](CC(C)C)C(=O)O [YKRWKKWRSKAKKIL] | 7.92 µM (≈ 16 µg/mL) | ≥ 63.4 µM | 31.7 µM (≈ 64 µg/mL) | 3.96 µM (≈ 8 µg/mL) | ≥ 63.4 µM | 7.92 µM (≈ 16 µg/mL) | 0.99 µM (≈ 2 µg/mL) | ≥ 63.4 µM | 1.98 µM (≈ 4 µg/mL) | 15.8 µM (≈ 32 µg/mL) | ≥ 63.4 µM | 15.8 µM (≈ 32 µg/mL) | ≥ 63.4 µM | ≥ 63.4 µM | ≥ 63.4 µM | 31.7 µM (≈ 64 µg/mL) | ≥ 63.4 µM | 7.92 µM (≈ 16 µg/mL) | 15.8 µM (≈ 32 µg/mL) | MIC [23]: 3.96 µM (≈ 8 µg/mL); MIC [24]: 3.96 µM (≈ 8 µg/mL); MIC [25]: ≥ 63.4 µM; MIC [26]: 1.98 µM (≈ 4 µg/mL); MIC [27]: ≥ 63.4 µM; MIC [28]: ≥ 63.4 µM |
|  | CC[C@H](C)[C@H](NC(=O)[C@H](C)NC(=O)[C@H](CC(C)C)NC(=O)[C@H](C)NC(=O)[C@H](CC(C)C)NC(=O)[C@H](CCCCN)NC(=O)[C@H](CC(C)C)NC(=O)[C@H](C)NC(=O)[C@H](CO)NC(=O)[C@H](C)NC(=O)[C@H](CC(C)C)NC(=O)[C@H](CC(C)C)NC(=O)[C@H](CCCCN)NC(=O)[C@H](CCCCN)NC(=O)[C@H](C)NC(=O)[C@@H](NC(=O)[C@@H](N)CCC(=O)O)C(C)C)C(=O)O [EVAKKLLASALKLALAI] | ≥ 73.1 µM | ≥ 73.1 µM | ≥ 73.1 µM | 9.13 µM (≈ 16 µg/mL) | ≥ 73.1 µM | ≥ 73.1 µM | 18.3 µM (≈ 32 µg/mL) | ≥ 73.1 µM | ≥ 73.1 µM | ≥ 36.5 µM | ≥ 73.1 µM | ≥ 73.1 µM | ≥ 73.1 µM | ≥ 73.1 µM | ≥ 73.1 µM | ≥ 73.1 µM | ≥ 73.1 µM | ≥ 73.1 µM | > 73.1 µM | MIC [23]: ≥ 73.1 µM; MIC [24]: ≥ 73.1 µM; MIC [25]: ≥ 73.1 µM; MIC [26]: ≥ 73.1 µM; MIC [27]: ≥ 73.1 µM; MIC [28]: ≥ 73.1 µM |
|  | CC[C@H](C)[C@H](NC(=O)[C@H](C)N)C(=O)N[C@H](C(=O)N[C@@H](CCC(=O)O)C(=O)N[C@@H](CCC(N)=O)C(=O)N[C@@H](CC(C)C)C(=O)N[C@@H](CCCN=C(N)N)C(=O)N[C@@H](CCCCN)C(=O)N[C@@H](CCCN=C(N)N)C(=O)N[C@@H](CS)C(=O)O)C(C)C [AIVEQLRKRC] | ≥ 105 µM | ≥ 105 µM | ≥ 105 µM | ≥ 105 µM | ≥ 105 µM | ≥ 105 µM | ≥ 105 µM | ≥ 105 µM | ≥ 105 µM | ≥ 105 µM | ≥ 105 µM | ≥ 105 µM | ≥ 105 µM | ≥ 105 µM | ≥ 105 µM | ≥ 105 µM | ≥ 105 µM | ≥ 105 µM | > 105 µM | MIC [23]: ≥ 105 µM; MIC [24]: ≥ 105 µM; MIC [25]: ≥ 105 µM; MIC [26]: ≥ 105 µM; MIC [27]: ≥ 105 µM; MIC [28]: ≥ 105 µM |
|  | CC(C)C[C@H](NC(=O)[C@H](CCCCN)NC(=O)[C@H](CC(C)C)NC(=O)[C@@H](N)CC(C)C)C(=O)N[C@@H](Cc1ccccc1)C(=O)N[C@@H](Cc1ccccc1)C(=O)N1CCC[C@H]1C(=O)N[C@@H](Cc1ccccc1)C(=O)N[C@@H](CC(C)C)C(=O)N[C@@H](CCC(=O)O)C(=O)N[C@H](C(=O)NCC(=O)N[C@@H](CCC(=O)O)C(=O)O)[C@@H](C)O [LLKLFFPFLETGE] |  |  |  |  |  |  |  |  |  |  |  |  |  |  |  |  |  |  |  | MIC (Salmonella sp.): ≥ 256 µM |
| 1 µM (≈ 2.32 µg/mL) | CC[C@H](C)[C@H](N)C(=O)N[C@@H](Cc1c[nH]c2ccccc12)C(=O)N[C@@H](Cc1c[nH]c2ccccc12)C(=O)N[C@@H](C)C(=O)N[C@@H](CCCCN)C(=O)N[C@@H](Cc1c[nH]c2ccccc12)C(=O)NCC(=O)N[C@@H](CC(C)C)C(=O)N[C@@H](CCCCN)C(=O)N[C@@H](CC(C)C)C(=O)N[C@@H](CC(C)C)C(=O)N[C@@H](CCCN=C(N)N)C(=O)N[C@@H](Cc1ccc(O)cc1)C(=O)N[C@@H](CCCN=C(N)N)C(=O)N[C@@H](CCCN=C(N)N)C(=O)N[C@H](C(=O)N[C@@H](Cc1ccc(O)cc1)C(=O)O)[C@@H](C)CC [IWWAKWGLKLLRYRRIY] |  |  |  |  |  |  |  |  |  |  |  |  |  |  |  |  |  |  |  | MIC [29]: 8 µM (≈ 18.6 µg/mL) |

| SMILES | MIC (Escherichia coli W3110) | MIC [4] | MIC [5] | MIC [6] | MIC [7] | MIC [8] | MIC [9] | MIC [10] | MIC [11] | MIC [12] | MIC [13] | MIC [14] | MIC [15] | MIC [16] | MIC [17] | MIC [18] | MIC [19] | MIC [20] | MIC [21] | MIC [22] | also measured |
| --- | --- | --- | --- | --- | --- | --- | --- | --- | --- | --- | --- | --- | --- | --- | --- | --- | --- | --- | --- | --- | --- |
| CC(C)C[C@H](NC(=O)CNC(=O)[C@H](CC(C)C)NC(=O)[C@H](CCCCN)NC(=O)[C@H](C)NC(=O)[C@H](Cc1c[nH]c2ccccc12)NC(=O)[C@H](Cc1c[nH]c2ccccc12)NC(=O)[C@@H](N)Cc1c[nH]c2ccccc12)C(=O)N[C@@H](CCCCN)C(=O)N[C@@H](CC(C)C)C(=O)N[C@@H](CC(C)C)C(=O)N[C@@H](CCCN=C(N)N)C(=O)N[C@@H](Cc1ccc(O)cc1)C(=O)N[C@@H](CCCN=C(N)N)C(=O)N[C@@H](CCCN=C(N)N)C(=O)N[C@@H](Cc1c[nH]c2ccccc12)C(=O)N[C@@H](Cc1ccc(O)cc1)C(=O)O [WWWAKLGLKLLRYRRWY] | 4 µM (≈ 9.58 µg/mL) |  |  |  |  |  |  |  |  |  |  |  |  |  |  |  |  |  |  |  | MIC [29]: 8 µM (≈ 19.2 µg/mL) |
